# Data: patent US20100204181A1, “N-HALOGENATED AMINO ACID FORMULATIONS COMPRISING PHOSPHINE OR AMINE OXIDES” (ALCON RESEARCH, LTD., priority 2009, published 2010)
# Key:
# [1] = Chemical stability of N,N-dichloro-2,2-dimethyltaurine solution with and without TBPO or TMAO; assay type: physicochemical
# From the text: FIG. 1 is a graph showing the stability of a 0.1 w/v % solution of N,N-dichloro-2,2-dimethyltaurine with and without 0.01 w/v % TBPO; and
# FIG. 2 is a graph showing the stability of a 0.11 w/v % solution of N,N-dichloro-2,2-dimethyltaurine with and without 0.037 w/v % TMAO.
# The present inventors have discovered that the antimicrobial activity of N-halogenated amino acid compounds is enhanced in a formulation comprising a phosphine oxide or amine oxide compound. The enhancement is synergistic, as the phosphine oxide and amine oxide compounds tested have no intrinsic antimicrobial activity. Also the increase in antimicrobial activity of the N-halogenated amino acid compound in the presence of a phosphine oxide and/or amine oxide compound is likely not due to a chemical reaction that generates a new and more reactive chemical species.
# [2] = tested on: S. aureus; test: Viable cells per mL of S. aureus after treatment; assay type: cell-based; details: 5 minutes after treatment
# Procedure: As shown above in Table 1, there were only 24 viable cells per mL measured 5 minutes after treatment with 0.001% N,N-dichloro-2,2-dimethyltaurine formulated with acetate buffer at pH 4. In contrast, there were 27429 and 910 viable cells per mL 5 minutes after treatment with a 0.001% N,N-dichloro-2,2-dimethyltaurine formulation comprising no buffer and adipic acid buffer, respectively.
structure (smiles),measurement,setting,value
"CC(C)(CS(=O)(=O)O)N(Cl)Cl [N,N-dichloro-2,2-dimethyltaurine]",chemical stability,[1]; 0.1 w/v % solution with and without 0.01 w/v % TBPO (FIG. 1),not affected
same,chemical stability,[1]; 0.11 w/v % solution with and without 0.037 w/v % TMAO (FIG. 2),not affected
same,viable cells per mL,[2]; 0.001% formulated with acetate buffer at pH 4,24 cells per mL
same,viable cells per mL,"[2]; 0.001% formulation, adipic acid buffer",910 cells per mL
same,viable cells per mL,"[2]; 0.001% formulation, no buffer",27429 cells per mL
